Measurements from ChEMBL document CHEMBL5604063, “ASAP - DENV-2 NS2B-NS3 protease fluorescence dose response” (2024).
Values joined by “and” are separate entries in the source; they are usually repeats but may differ in a detail not shown here. Equal entries are not always repeated.

Assays:
Genome polyprotein [1] = molecular target: T1, Genome polyprotein (dengue virus type 2, UniProt P29990); assay type: functional, Thailand/16681/1984
Genome polyprotein [2] = molecular target: T1, Genome polyprotein; assay type: functional, Thailand/16681/1984; remark: listed apart in the source

T1 sequence (P29990 1346-1475 limits assumed): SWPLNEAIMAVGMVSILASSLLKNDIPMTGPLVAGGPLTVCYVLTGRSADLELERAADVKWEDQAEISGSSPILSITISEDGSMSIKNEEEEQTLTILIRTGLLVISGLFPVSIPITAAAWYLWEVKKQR
T1 sequence (P29990 1476-2093 limits assumed): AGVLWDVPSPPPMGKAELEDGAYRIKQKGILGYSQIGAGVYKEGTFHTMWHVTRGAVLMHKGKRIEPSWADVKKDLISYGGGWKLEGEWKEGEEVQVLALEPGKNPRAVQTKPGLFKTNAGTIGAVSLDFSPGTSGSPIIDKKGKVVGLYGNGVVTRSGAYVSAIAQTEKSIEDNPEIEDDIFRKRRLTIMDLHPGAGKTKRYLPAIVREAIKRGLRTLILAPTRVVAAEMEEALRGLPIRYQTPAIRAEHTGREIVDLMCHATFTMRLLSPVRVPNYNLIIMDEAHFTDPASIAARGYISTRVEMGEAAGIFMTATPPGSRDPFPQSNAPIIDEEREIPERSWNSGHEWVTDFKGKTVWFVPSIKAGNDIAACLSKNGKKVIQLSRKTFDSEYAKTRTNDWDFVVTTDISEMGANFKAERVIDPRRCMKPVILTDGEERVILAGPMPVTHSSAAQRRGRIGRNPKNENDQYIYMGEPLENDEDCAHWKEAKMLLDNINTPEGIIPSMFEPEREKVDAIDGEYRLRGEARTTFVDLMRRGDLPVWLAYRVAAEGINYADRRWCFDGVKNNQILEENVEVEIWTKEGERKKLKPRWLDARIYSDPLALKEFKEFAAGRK

Row | SMILES | IC50 (Genome polyprotein [1]) | IC50 (Genome polyprotein [2]) [µM]
1 | NCc1ccc(CNC(=O)c2cc(Cl)cc(NC(=O)OCc3ccccc3)c2)c(F)c1 | > 99.5 µM | > 100
2 | NCc1cccc(NC(=O)[C@@H](NC(=O)OCc2ccccc2)c2ccc(OC[C@H]3CCS(=O)(=O)C3)cc2)c1 | > 99.5 µM | > 100
3 | CCC1(NC(=O)Cn2ccnc(N3CC[C@@H](CO)C3)c2=O)CC1 | > 99.5 µM | > 100
4 | O=C(Cn1ccnc(N2CC[C@H](CO)C2)c1=O)NCc1cccs1 | > 99.5 µM | > 100
5 | NCc1cccc(NC(=O)c2cc(Cl)cc(Cl)c2O)c1 | > 99.5 µM | > 100
6 | O=C(Nc1cc(Cl)cc(C(=O)NC[C@@]23CC[C@H](CNC2)C3)c1)OCc1ccccc1 | > 99.5 µM | > 100
7 | NC[C@H]1C[C@](F)(CNC(=O)c2cc(Cl)cc(NC(=O)OCc3ccccc3)c2)C1 | > 99.5 µM | > 100
8 | Cc1ccc(S(=O)(=O)N2CCC([C@@H](NC(=O)OCc3ccccc3)C(=O)Nc3cccc(CN)c3)CC2)c(C)c1 | > 99.5 µM | > 100
9 | NCc1cccc(NC(=O)[C@@H](NC(=O)OCc2ccccc2)C2CCN(S(=O)(=O)[C@H]3CCOC3)CC2)c1 | > 99.5 µM | > 100
10 | CC(=O)Nc1cc(Cl)cc(C(=O)Nc2cccc(CN)c2)c1 | > 99.5 µM | > 100
11 | NC[C@]12CC[C@](NC(=O)c3cc(Cl)cc(NC(=O)OCc4ccccc4)c3)(CO1)C2 | > 99.5 µM | > 100
12 | Cc1cccc(CNc2ccc(Cl)cc2C(=O)Nc2cccc(CN)c2)n1 | > 99.5 µM | > 100
13 | NCc1cccc(NC(=O)[C@@H](NC(=O)OCc2ccccc2)C2CCN(Cc3ccncc3)CC2)c1 | > 99.5 µM | > 100
14 | CNCc1cccc(NC(=O)c2cc(Cl)cc(NC(=O)OCc3ccccc3)c2)c1 | 80.5 µM | > 100
15 | O=C(Nc1cc(Cl)cc(C(=O)NC[C@H]2CCNC3(CC3)C2)c1)OCc1ccccc1 | > 99.5 µM | > 100
16 | c1cncc(-c2cccc(NCc3c[nH]c4ccccc34)c2)c1 | > 99.5 µM | > 100
17 | Cc1ncc(COc2ccc([C@@H](NC(=O)OCc3ccccc3)C(=O)Nc3cccc(CN)c3)cc2)o1 | > 99.5 µM | > 100
18 | O=C(Nc1cc(Cl)cc(C(=O)N[C@@]23CCCCC[C@@H]2NCC3)c1)OCc1ccccc1 | > 99.5 µM | > 100
19 | N[C@H]1CC[C@H](NC(=O)c2cc(Cl)cc(NC(=O)OCc3ccccc3)c2)C1 | > 99.5 µM | > 100
20 | CCCC(=O)Nc1cc(Cl)cc(C(=O)Nc2cccc(CN)c2)c1 | > 99.5 µM | > 100

Row | SMILES | IC50 (Genome polyprotein [1]) | IC50 (Genome polyprotein [2]) [µM]
21 | C[C@H]1CCCCN1C(=O)Cn1ccnc(N2CC[C@@H](CO)C2)c1=O | > 99.5 µM | > 100
22 | Cc1nccn1-c1ccc(Cl)cc1C(=O)Nc1cccc(CN)c1 | > 99.5 µM | > 100
23 | CNC(=O)CN1CCC([C@@H](NC(=O)OCc2ccccc2)C(=O)Nc2cccc(CN)c2)CC1 | > 99.5 µM | > 100
24 | O=C(Nc1cc(Cl)cc(C(=O)Nc2ccc3c(c2)CNCCO3)c1)OCc1ccccc1 | > 99.5 µM | > 100
25 | O=C(Nc1cc(Cl)cc(C(=O)NC[C@H]2CNC3(CC3)CO2)c1)OCc1ccccc1 | > 99.5 µM | > 100
26 | O=c1[nH]c2cccc(N3CCN(Cc4c[nH]c5ccccc45)CC3)c2o1 | > 99.5 µM | > 100
27 | O=C(Nc1cc(Cl)cc(C(=O)NC2([C@H]3CCNC3)CC2)c1)OCc1ccccc1 | > 99.5 µM | > 100
28 | O=C(Nc1cc(Cl)cc(C(=O)Nc2nccn2C2CNC2)c1)OCc1ccccc1 | > 99.5 µM | > 100
29 | N[C@@H]1CC[C@H](CCNC(=O)c2cc(Cl)cc(NC(=O)OCc3ccccc3)c2)C1 | > 99.5 µM | > 100
30 | NCc1cccc(NC(=O)[C@@H](NC(=O)OCc2ccccc2)c2ccc(OCCN3CCCCC3)cc2)c1 | > 99.5 µM | > 100
31 | Cc1cc(C(=O)Nc2cccc(CN)c2)cc(NC(=O)OCc2ccccc2)c1Cl | 55.4 µM | > 100
32 | N[C@@H]1CC[C@H](NC(=O)c2cc(Cl)cc(NC(=O)OCc3ccccc3)c2)C1 | > 99.5 µM | > 100
33 | CCc1ccc([C@@H](CC(=O)Nc2cccc(CN)c2)NC(=O)OCc2ccccc2)cc1Br | 16.4 µM and 22.3 µM | 85.1
34 | NCc1cccc(NC(=O)[C@@H](NC(=O)OCc2ccccc2)c2ccc(OCc3cnccn3)cc2)c1 | > 99.5 µM | > 100
35 | CN1CCC(COc2ccc([C@@H](NC(=O)OCc3ccccc3)C(=O)Nc3cccc(CN)c3)cc2)CC1 | > 99.5 µM | > 100
36 | Cn1nc2c(c1NC(=O)c1cc(Cl)cc(NC(=O)OCc3ccccc3)c1)CNCC2 | 60.7 µM | > 100
37 | NC[C@]1(F)C[C@@H](NC(=O)c2cc(Cl)cc(NC(=O)OCc3ccccc3)c2)C1 | 66.6 µM | > 100
38 | NS(=O)(=O)c1cccc(N2CCN(Cc3c[nH]c4ccccc34)CC2)c1 | > 99.5 µM | > 100
39 | CCCN(C)CC(=O)N1CCC([C@@H](NC(=O)OCc2ccccc2)C(=O)Nc2cccc(CN)c2)CC1 | > 99.5 µM | > 100
40 | C[C@@H](N)c1cccc(NC(=O)c2cc(Cl)cc(NC(=O)OCc3ccccc3)c2)c1 | 81 µM | > 100
